Measured values published in patent publication US20240108632A1, “PHARMACEUTICAL COMPOSITION FOR ADMINISTRATION AS OPHTHALMIC DROP TO PATIENT REQUIRING OPTIC NERVE PROTECTION” (PINOTBIO, INC., priority 2020, published 2024).

Legend:
[1] = cited from earlier work
normal patients = details: cited from earlier work
[2] = test system: cynomolgus macaque model of glaucoma; assay: Intraocular pressure in cynomolgus macaque model of glaucoma (laser trabeculoplasty); assay type: in vivo
Description: (§1) Three weeks before the first laser trabeculoplasty, IOP was measured via a tomometer (SPHPR-320-61), once per week for three weeks. The first laser trabeculoplasty was performed in one eye for each macaque. Two weeks later, laser trabeculoplasty was repeated in the same eye (Week 0).
(§2) One week after the second laser trabeculoplasty (Week 1), IOP was measured and retinal nerve fiber layer (RNFL) thickness was measured via optical coherence tomography (OCT; RS3000 Advance, Nidek Co. Ltd., Gamagoori, Japan) (SPHPR- 320-58). The day after group assignment, the eyes were instilled with either vehicle, KR-67607 or brimonidine twice a day. On Day 1, the effect of treatment on IOP over time was measured before treatment and 1, 2, 4, and 8 hrs. after instillation. At the same time, blood samples were obtained. From the effects of dosing observed on Day 1, it was determined that 2 hrs. was a reasonable time time-to-test following instillation for subsequent observations.
(§3) Intraocular pressures were obtained at Weeks 2, 3, 4, 5, 7 and 9. Optical coherence tomography and color fundus photography (CFP) were performed at Weeks 1, 3, 5, 7, and 9 (SPHPR-320-56).
Following measurements at Week 9, G3 macaques was randomized into two groups based on IOP, and the effect of KR-67607 (1.5 mg/mL, 3.0 mg/mL) on IOP was evaluated.

[3] = test system: cynomolgus macaque model of glaucoma; assay: Funduscopy in cynomolgus macaque model of glaucoma; assay type: in vivo
Description: as §1, §2, §3

[4] = test system: cynomolgus macaque model of glaucoma; assay: Retinal nerve fiber layer thickness by OCT in cynomolgus macaque model of glaucoma; assay type: in vivo
Description: as §1, §2, §3

2-hydroxypropyl-β-cyclodextrin [HP-β-CD]
solubility in water [1]: more than 1 g/ml

CC1(C)[C@@H](OC(=O)CCC(=O)O)CC[C@]2(C)[C@H]3C(=O)C=C4[C@@H]5C[C@@](C)(C(=O)O)CC[C@]5(C)CC[C@@]4(C)[C@]3(C)CC[C@@H]12 [carbenoxolone]
reduce intraocular pressure to levels as low as (normal patients): 20%

Brimonidine tartrate [reference compound]
maximum decrease of IOP, contralateral normal eye ([2]; Day 1 dosing, 2 hours after dosing): 4.1±0.9 mmHg | maximum decrease of IOP, glaucomatous eye ([2]; Day 1 dosing, 2 hours after instillation): 19.5±2.7 mmHg | effect on trough IOP value ([2]; glaucomatous eyes, repeated treatment twice a day, brimonidine tartrate 0.1%, KR-67607 1.5 mg/mL): did not significantly affect | maximum decrease of IOP, normal eye ([2]; over weeks): 4.9±0.8 mmHg | animals with a lesser degree of cupping compared to G1 ([3]; Week 3 to Week 5): three animals | animals with a small or lesser degree of cupping ([3]; Week 9): one animal | number of eyes with RNFL thickness greater than 50% compared to baseline ([4]; Week 9, 6 eyes per group): 1 | RNFL thinning in glaucomatous eyes ([4]; repeated treatment, compared to vehicle-treated (G1)): appeared to inhibit
